Measurements as given in article PMC4128046, “Effect of a toggle switch mutation in TM6 of the human adenosine A3 receptor on Gi protein-dependent signalling and Gi-independent receptor internalization” (British Journal of Pharmacology, 2014).
Substitutions are numbered along the chain they refer to. Read-outs that look alike come from different tables or passages of the source.

What was measured:
Type in all cases: cell-based
[1] = molecular target: T1, human A3 receptor fused to YFP (A3-YFP) (Homo sapiens, UniProt P0DMS8); assay: Automated imaging of receptor internalization (granularity analysis), A3-YFP; details: for Maximal internalization (%): percentage of internalization with 10 μM NECA in the cell line
T1 construct: cDNA encoding the full length human A3 receptor; expressed in transfected cells
T1 sequence (P0DMS8 1-318): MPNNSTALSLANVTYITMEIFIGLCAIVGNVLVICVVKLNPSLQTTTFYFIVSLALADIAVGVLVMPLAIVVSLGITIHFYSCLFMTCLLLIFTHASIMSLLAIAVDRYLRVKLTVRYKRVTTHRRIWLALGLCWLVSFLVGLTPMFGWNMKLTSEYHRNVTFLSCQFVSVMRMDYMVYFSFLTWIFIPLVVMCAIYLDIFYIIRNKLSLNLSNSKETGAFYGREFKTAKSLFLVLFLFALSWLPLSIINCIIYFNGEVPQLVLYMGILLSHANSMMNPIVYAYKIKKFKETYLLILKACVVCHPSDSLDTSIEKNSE
Excerpt: Immediately before experimentation, normal growth medium was replaced with serum-free medium. […] Medium was removed and cells were washed once in PBS. […] Images were obtained using an ImageXpress Ultra confocal plate reader (Molecular Devices, Sunnyvale, CA, USA). Four central images were obtained per well using a Plan Fluor 40x NA0.6 extra-long working distance objective. BiFC and YFP images were obtained by excitation with a 488 nm laser line with emission collected through a 525-550 nm band pass filter and H33342 images obtained by excitation with a 405 nm laser line and emission collected through a 447-460 nm band pass filter. Granularity analysis was performed on the resulting images using a granularity algorithm within MetaXpress software (Molecular Devices, Sunnyvale, CA, USA) and intensity above background was set for each individual experiment (Kilpatrick et al., [2010]). Areas of internalized receptors were identified by granularity analysis; granules were defined as having a diameter of between 7 and 15 μm and nuclei as having a diameter of between 6 and 9 μm, resulting in a measurement of the granule count per cell for each image. A basal and FSK control was included in each separate concentration-response CRE-SPAP gene transcription assay and cAMP accumulation assay to allow the responses in each cell line to be expressed as an inhibition of FSK-stimulated SPAP production. […] All data were fitted using non-linear regression in Prism 5 (GraphPad Software, San Diego, CA, USA). […] Statistical significance was determined by Student's unpaired t-test or by one-way ANOVA with Dunnett's post hoc analysis and P < 0.05 was considered statistically significant.

[2] = molecular target: T2, A3 W243F-vYc/β-arrestin2-vYnL (Homo sapiens, UniProt P0DMS8, W243F); assay: BiFC of receptor with β-arrestin2 (automated imaging), A3 W243F-vYc; details: A3 W243F-vYc/β-arrestin2-vYnL cells; for Maximal BiFC (%): percentage of 10 μM NECA in the cell line
T2 construct: cDNA encoding the full length human A3 receptor; expressed in transfected cells; host or cells: CHO-K1 stably expressing β-arrestin2-vYnL, stably co-transfected with A3 W243F-vYc

A3 W243F-YFP = molecular target: T3, A3 W243F-YFP (Homo sapiens, UniProt P0DMS8, W243F); assay: CRE-SPAP gene transcription assay, A3 W243F-YFP; details: A3 W243F-YFP cells
T3 construct: Full length A3 W243F-YFP was excised and subcloned into a native pcDNA3.1 vector; expressed in transfected cells
T3 sequence (P0DMS8 1-318 W243F): T1 sequence (P0DMS8 1-318) with W243F
Procedure: (§1) One day before analysis, normal growth medium was removed from the cells and replaced with serum-free medium (DMEM/F12 containing 2 mM L-glutamine). Where applicable, PTx (100 ng·mL^−1) was added at this stage. On the day of the assay, the medium was removed and replaced with fresh serum-free medium containing the required concentration of the agonist, and cells were incubated for 1 h at 37°C/5% CO2. After 1 h, the required concentration of forskolin (FSK) was added, and cells were incubated for a further 5 h at 37°C/5% CO2. Following the 5 h incubation, all medium was removed from the cells, 40 μL of fresh serum-free medium was added to each well and cells incubated for a further 1 h at 37°C/5% CO2. The plates were then incubated at 65°C for 30 min, to destroy any endogenous alkaline phosphatases. Plates were cooled to room temperature and 100 μL of 5 mM 4-nitrophenyl phosphate in diethanolamine-containing buffer [10% (v v^−1) diethanolamine, 280 mM NaCl, 500 μM MgCl2, pH 9.85] was added to each well; the plates were then incubated at 37°C for 25 min. The absorbance at 405 nm was measured using a Dynex MRX plate reader (Chelmsford, MA, USA).
(§2) A basal and FSK control was included in each separate concentration-response CRE-SPAP gene transcription assay and cAMP accumulation assay to allow the responses in each cell line to be expressed as an inhibition of FSK-stimulated SPAP production.

A3-YFP = molecular target: T4, A3-YFP (Homo sapiens, UniProt P0DMS8); assay: CRE-SPAP gene transcription assay, A3-YFP; details: A3-YFP cells; for agonist-mediated inhibition of SPAP production after PTx pre-incubation: PTx 100 ng·mL−1 overnight, 3 μM FSK; for Emax: read-out: Maximum response (% inhibition of 10 μM FSK), CRE-SPAP assay
T4 construct: cDNA encoding the full length human A3 receptor; expressed in transfected cells
T4 sequence (P0DMS8 1-318): T1 sequence (P0DMS8 1-318)
Procedure: as §1, with “phosphatases.” for “phosphatases. Plates were cooled to room temperature and 100 μL of 5 mM 4-nitrophenyl phosphate in diethanolamine-containing buffer [10% (v v^−1) diethanolamine, 280 mM NaCl, 500 μM MgCl2, pH 9.85] was added to each well; the plates were then incubated at 37°C for 25 min. The absorbance at 405 nm was measured using a Dynex MRX plate reader (Chelmsford, MA, USA).”
as §2

T2 sequence (P0DMS8 whole entry W243F): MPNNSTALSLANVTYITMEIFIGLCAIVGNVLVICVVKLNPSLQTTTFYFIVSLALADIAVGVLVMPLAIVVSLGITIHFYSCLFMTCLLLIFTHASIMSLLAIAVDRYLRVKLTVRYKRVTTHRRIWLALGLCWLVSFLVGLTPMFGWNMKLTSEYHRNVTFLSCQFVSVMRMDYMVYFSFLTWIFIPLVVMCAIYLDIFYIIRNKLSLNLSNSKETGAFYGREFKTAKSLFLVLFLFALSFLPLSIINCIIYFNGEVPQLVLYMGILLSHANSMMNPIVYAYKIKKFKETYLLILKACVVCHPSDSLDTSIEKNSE
T2 sequence (P32121 whole entry partner): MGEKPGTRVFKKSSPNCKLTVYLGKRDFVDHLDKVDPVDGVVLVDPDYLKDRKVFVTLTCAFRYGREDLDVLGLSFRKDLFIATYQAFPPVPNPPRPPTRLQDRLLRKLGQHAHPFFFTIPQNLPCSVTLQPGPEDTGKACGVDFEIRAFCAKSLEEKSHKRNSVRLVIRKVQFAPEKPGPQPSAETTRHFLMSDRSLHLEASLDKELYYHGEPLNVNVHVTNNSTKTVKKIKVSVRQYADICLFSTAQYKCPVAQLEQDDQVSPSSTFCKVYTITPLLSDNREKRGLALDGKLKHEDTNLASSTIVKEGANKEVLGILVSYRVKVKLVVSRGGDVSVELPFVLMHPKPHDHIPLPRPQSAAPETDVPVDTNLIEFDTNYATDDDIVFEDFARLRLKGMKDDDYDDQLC

Compound	EC50 ([1]; A3-YFP CHO CRE-SPAP cells, 45 min, granule count per cell, read-out: pEC50 (internalization) (converted)) [nM]	EC50 ([1]; A3-YFP cells, PTx 100 ng·mL−1 overnight, read-out: pEC50 (internalization) in the presence of PTx (converted)) [nM]	decrease in the maximal levels of internalization in the presence of PTx ([1]; A3-YFP cells, PTx pretreatment, reduction vs. 10 μM NECA internalization) [%]	Maximal internalization (%) ([1]; A3-YFP cells)	% maximal internalization vs. 10 μM NECA at 2 h (BiFC) ([2]; 10 μM, 2 h) [%]	Maximal BiFC (%) ([2]; 60 min)	EC50 ([2]; 60 min, read-out: pEC50 (BiFC with β-arrestin2-vYnL) (converted)) [nM]	Maximum response (% inhibition of 10 μM FSK), CRE-SPAP assay (A3 W243F-YFP)	maximum inhibition of SPAP production in response to 3 μM FSK (A3 W243F-YFP; 5 h stimulation, 3 μM FSK)	EC50 (A3-YFP; 5 h with FSK, read-out: pEC50 (CRE-SPAP assay) (converted)) [nM]	agonist-mediated inhibition of SPAP production after PTx pre-incubation (A3-YFP)	Emax (A3-YFP) [%]	agonist-mediated inhibition of SPAP production after PTx pre-incubation (A3 W243F-YFP; PTx 100 ng·mL−1 overnight, 3 μM FSK)	SPAP production in the absence of FSK (Gs coupling) (A3 W243F-YFP; no FSK, with or without PTx)	Emax (A3 W243F-YFP; read-out: Maximum response (% inhibition of 10 μM FSK), CRE-SPAP assay) [%]	SPAP production in the absence of FSK (Gs coupling) (A3-YFP; no FSK, with or without PTx)
CCCCC#Cc1nc(NC)c2ncn([C@@H]3O[C@H](CO)[C@@H](O)[C@H]3O)c2n1 [HEMADO, 2-(1-hexynyl)-N-methyladenosine]	245	282	30 ± 6	105.1±11.0	58.0 ± 5.8	54.5 ± 6.1	10.7	No inhibition	no significant decrease	3.02	no HEMADO-mediated response was observed	73.2 ± 7.7				
CCNC(=O)[C@H]1O[C@@H](n2cnc3c(N)ncnc32)[C@H](O)[C@@H]1O [NECA, 5-(N-ethylcarboxamido)adenosine]				100		100					abolished	65.8 ± 8.2	abolished	no increase in SPAP production	34.8 ± 6.7	no increase in SPAP production
